This is an account of results in patent US8188049B2, “Peptides having activities of epidermal growth factor and its uses” (Caregen Co., Ltd., priority 2006, dated 2012).

One data set relates to NIH-3T3 cell. The data set is described as follows: Stability of tridecapeptide: residual activity by MTT assay after storage at 37° C. Format: physicochemical. The following applies: 50 mM Tris-HCl pH 8.0, 37° C, days 0-100; peptide 10 μg/ml, EGF 1 μg/ml; MTT on NIH-3T3. As for the experimental part: To evaluate stability of the synthesized and purified tridecapeptide of Example 1, the tridecapeptide was dissolved in 50 mM Tris-HCl (pH 8.0) to a concentration of 10 μg/ml. The recombinant EGF protein (Sigma-Aldrich) produced in E. coli was prepared as a control in the same buffer to a concentration of 1 μg/ml. The prepared solutions were introduced into glass vials and kept to stand at 37° C. Afterwards, the solutions were taken on days 0, 1, 10, 25, 50, 75 and 100 and subjected to MTT assay (Scudiero, D. A., et al. Cancer Res. 48:4827-4833 (1988)) using NIH-3T3 cell (Korean Cell Line Bank) to determine residual activities of the peptide and EGF (FIG. 2). The results were given as relative values to the activity (100%) of sample taken on day 0.
For orientation: Tetrazolium dyes change colour on reduction, which living cells bring about.

For another data set, the system named is hyaluronic acid. The data set is described as follows: Hyaluronic acid level by ELISA. Format: cell-based, human. The note with it: HaCat, 5 μmole, 72 hr. As for the experimental part: Furthermore, HaCat cell lines were incubated for 72 hr with 5 μmole of the present tridecapeptides and then the level of hyaluronic acid, a marker indicating the improvement in skin wrinkle, was measured using Hyaluronic acid ELISA kit (Echelon Biosciences Inc, USA) (FIG. 8).

A further data set concerns NIH3T3 cells. The data set is described as follows: Cell motility after scratching the culture dish. Format: cell-based. The note with it: NIH3T3, 1 μg/ml, 1 and 3 day treatment. As for the experimental part: We analyzed cell motility to further verify cell proliferation potency. NIH3T3 cells were plated on 60 mm-culture dishes and cultured to a suitable fluency. The bottom surface of culture dishes was scratched using pipette and incubated with 1 μg/ml of the present peptides, followed by observing cell motility. In FIG. 6, panels A and B show cell samples non-treated with peptides and panels C and D, cell samples treated with 1 μg/ml peptides. Images of A and C were taken after 1 day-treatment, and those of B and D after 3 day-treatment.

A further data set deals with EGF. The data set is described as follows: Autocrine effect: EGF level in culture by ELISA. The following applies: HaCat, 1 μg/ml, 6 days. Format: cell-based, human. As for the experimental part: For examining autocrine effects, HaCat cell lines were incubated for 6 days with the tridecapeptides of this invention (1 μg/ml) and then the level of EGF in culture was measured using the ELISA kit (R&D, USA).

The next data set has as its system HaCaT keratinocytes. The data set is described as follows: SRB colorimetric assay, growth of HaCaT keratinocytes. Format: cell-based, human. The following applies: 72 hr; for cell growth / proliferation of keratinocytes (absorbance at 590 nm): 10 ng/ml or 1,000 ng/ml, serum-free. As for the experimental part:
(§1) To analyze effects of peptides of this invention on proliferation of keratinocytes, SRB (Sulforhodamine B) colorimetric assay was carried out using HaCaT kerationcyte according to Rizzino et al method (Rizzino, et al. Cancer Res., 48:4266 (1988)). HaCaT ketatinocytes (The Korean Cell Line Bank) were cultured in 250 ml-flasks containing EMEM (Eagle's minimal essential media, Gibco, U.S.A.) supplemented with […] (fetal bovine serum). HaCaT ketatinocytes cultured were treated with 0.25% trypsin solution to detach cells from the bottom of culture flasks and centrifuged to collect cell pellets. Cells were resuspended in EMEM not containing FBS, its aliquot (4×10^3) cells was added to each well of 96-well plates and cultured under 7% CO2 for 24 hr at 37° C. After 24-hr culture, the medium was changed with a fresh medium not containing serum and cells were incubated with human EGF or the tri-decapeptide (10 ng/ml or 1,000 ng/ml) dissolved in 10% DMSO for 72 hr under the same conditions as described above. After removing supernatants, cells were washed once using PBS (phosphate buffered saline) and incubated with SRB solution (Sigma-Aldrich). Cells were washed with PBS and observed under a microscope to examine cell viability (FIG. 3). In addition, absorbance at 590 nm was measured to analyze cell proliferation (FIG. 4). Cell adherency to culture dishes was tested using non-treated culture dishes and peptide-pretreated culture dishes. Human keratinocytes were plated on the culture dishes and then incubated for 24 hr, followed by observation under a microscope.
Background: In SRB staining, fixed cells bind dye roughly in proportion to their protein.

Another data set concerns Human keratinocytes. The data set is described as follows: Cell adherency to peptide-pretreated culture dishes. Format: cell-based. The following applies: 24 hr. As for the experimental part: as §1, with “Cell adherency to culture dishes was tested using non-treated culture dishes and peptide-pretreated culture dishes. Human keratinocytes were plated on the culture dishes and then incubated for 24 hr, followed by observation under a microscope.” left out

Where [1] appears, read: listed as peptide of this invention.

On to “NH2-Cys-Met-Tyr-Ile-Glu-Gly-Gly-Gly-Gly-Arg-Gly-Asp-Gly-OH (H-CMYIEGGGGRGDG-OH) [tridecapeptide]”, for which, in the data set on NIH-3T3 cell, the “residual activity relative to day 0 (100%)” value is “not to be decreased”. The “level of hyaluronic acid” value in the data set with hyaluronic acid is reported as “significantly increased”. The cell motility entry in the data set on NIH3T3 cells is recorded as “promote cell motility”. Moreover, the “level of EGF in culture (autocrine effect)” value is given as “significantly high autocrine effects on EGF” in the data set on EGF and “considerable increase” in the data set on EGF (listed as present peptide). Moreover, the “cell growth / proliferation of keratinocytes (absorbance at 590 nm)” value in the data set with HaCaT keratinocytes was “promotes the growth of human keratinocytes in a dose-dependent manner”; in the data set with HaCaT keratinocytes (setting [1]) it was “significantly high potency”. The “cell viability (microscope)” value in the data set on HaCaT keratinocytes (SRB staining) is “significantly high potency”. Also, the “number of cells adhered to culture dishes vs non-treated culture dishes” value in the data set on Human keratinocytes (setting [1]) is listed as “significantly high potency”; in the data set with Human keratinocytes (listed as peptides of this invention), “about three-fold greater”.
As to “recombinant EGF protein: recombinant EGF protein (Sigma-Aldrich) produced in E. coli, used as control [reference compound]”, in the data set with NIH-3T3 cell, the “residual activity relative to day 0 (100%)” value is “sharply decreased”.
